Assay results taken from patent publication US9572881B2, “Halogenated compounds for photodynamic therapy” (Nanoquantum Sciences, Inc., priority 2012, dated 2017).
Where “and” joins values, the source holds several entries; their conditions need not be identical. Equal entries are not always repeated.

What was measured:
[1] = Absorption spectra and extinction coefficients of dyes; assay type: physicochemical; conditions: for Extinction coefficient ε at λmax (abs): synthesis example, no unit
Experimental: Absorption spectra were measured at RT on a Perking Elmer Lambda 35 UV/Vis spectrophotometer. […] The stock solution was diluted (1:2000) and the absorbance was measured in a 5-cm standard quartz cell. All dye concentrations were in the range of 1.1 to 2.0×10^−7 M. The extinction coefficients were calculated according to Lambert-Beer's law.

[2] = Fluorescence emission spectra and quantum yield relative to HITC; assay type: physicochemical; conditions: for QY (fluor): given as fraction in synthesis example
Experimental: Fluorescence spectra for the dyes were determined at RT on a Varian Cary Eclipse spectrofluorometer in a standard 1-cm quartz cell. The spectra were corrected. All concentrations of the fluorophores were chosen to be between 0.2 and 1.0 μM.
For the determination of the quantum yields (QY), the integrated relative intensities of the dyes or dye-protein conjugates, were measured against HITC as the reference. All absorbances at excitation wavelength (λexc) were in the range of 0.04-0.08 (when measured in a 1-cm cell).
The QY of each sample was independently measured 3-4 times and the average value was calculated.

[3] = Singlet oxygen quantum yield, DPBF scavenger method in ethanol; assay type: physicochemical; conditions: measured in ethanol, 650 nm laser, ICG reference
Experimental: The modified relative photochemical method of Spiller W. et al. (J. Porphyrins Phthalocyanines, 1998, V. 2, 145-158) utilizing 1,3-diphenylisobenzofuran (DPBF) as a chemical scavenger was used to determine the photosensitiser's singlet oxygen quantum yields (ΦΔ) in ethanol solutions.
Ethanolic solutions containing DPBF (10 μM) and sensitizers with absorbance (optical density) in a range between 0.09 and 0.10 at 650 nm (measured in a standard 1-cm quartz cell) were prepared. Samples were saturated with oxygen by bubbling. Next, 3 mL of the solution were placed in a 1-cm cell equipped with a stirring bar and a 10 mW, 650 nm diode laser was hermetically attached to the top of cuvette so as to avoid solvent evaporation and to provide a light beam direction from top to bottom of the cuvette. The solution in the cuvette was irradiated with the diode laser under continuous stirring for a certain time. DPBF consumption was determined by monitoring DPBF bleaching over irradiation time using absorption spectroscopy at 411 nm (extinction coefficient 22,000 M^−1 cm^−1). At least six absorption spectra were obtained for each solution at different irradiation times until the DPBF absorbance reduced at least to the 10% of the initial absorbance.
The decrease of DPBF absorbance at 411 nm versus irradiation time was plotted for each photosensitizer and the DPBF degradation rate constant (K) characterizing the reaction rate of singlet oxygen with DPBF in presence of a sensitizer was calculated.

bovine erythrocytes = experiment: Phototoxicity (glow lamp) and dark toxicity by hemolysis of bovine erythrocytes; assay type: cell-based; conditions: Dark
Experimental: (§1) Bovine erythrocytes were isolated from blood plasma stored with sodium citrate. 1 mL of bovine blood was treated at centrifuge (3,000 rpm) for 10 min to precipitate erythrocytes. The supernatant was decanted, 2 mL of physiological solution were added, treated and erythrocytes were precipitated with centrifuge. The washing procedure was repeated for 3 times and the precipitated erythrocytes were collected. […] Cells were dye-incubated for 45 minutes at 37° C. in the dark. Then the examined suspensions of cells (erythrocytes) were placed at a distance of 30-cm from a 250 W glow red-lamp equipped with a water-based heat filter and irradiated with occasional stirring. After irradiation, cells were stored at 4° C. for 15 hours. […] The hemolysis level (percentage of hemolyzed cells) was determined as the ratio of absorbances of the supernatant and a solution of 100% hemolysed cells. The 100% hemolysis was taken as the value obtained when the given number of erythrocytes were suspended in distilled water.

[4] = as above; assay type: cell-based; conditions: bovine, bovine erythrocytes, Glow Lamp
Experimental: as §1

Compound | Absorption max. ([1]; Methanol) | Emission max. ([2]; Methanol) | Fluorescence quantum yield ([2]; Methanol) | Absorption max. ([1]; Water) | Emission max. ([2]; Water) | further results
1-(5-carboxypentyl)-2-[7-(4,6-diiodo-1,3,3-trimethyl-3H-2-indoliumyl)-2,4,6-heptatrienylidene]-3,3-dimethyl-5-indolinesulfonate [I-73] | 748 nm | 779 nm | 41% | – | – | QY (fluor) ([2]; methanol): 0.41
1-(5-carboxypentyl)-2-[7-(4,6-diiodo-1,3,3-trimethyl-3H-2-indoliumyl)-2,4,6-heptatrienylidene]-3-methyl-3-(4-sulfobutyl)-5-indolinesulfonate [I-72] | 750 nm | 780 nm | 41% | 750 nm | 777 nm | Singlet oxygen generation quantum yield ΦΔ [3]: 12%; Extinction Coefficient ([1]; Water): 270,000 M^−1cm^−1; Extinction coefficient ε at λmax (abs) ([1]; water): 270,000; Fluorescence quantum yield ([2]; Water): 21%; QY (fluor) ([2]; methanol): 0.41; QY (fluor) ([2]; water): 0.21
3-(5-carboxypentyl)-2-[7-(4,6-diiodo-1,3,3-trimethyl-2,3-dihydro-1H-2-indolyliden)-1,3,5-heptatrienyl]-1,1-dimethyl-6-sulfo-8-(1H-benzo[e]indolium)sulfo-nate [I-74] | 760 nm | 793 nm | 22% | – | – | QY (fluor) ([2]; methanol): 0.22
CN1\C(=C/C=C/C=C/C=C/C2=[N+](C)c3ccc(I)cc3C2(C)C)C(C)(C)c2cc(I)ccc21.[I-] [I-25] | 753 nm | 784 nm | 30% | 750 nm | 779 nm | Singlet oxygen generation quantum yield ΦΔ [3]: 20%; Absorption max. ([1]; Chloroform): 771 nm; Hemolysis (bovine erythrocytes; 50 μM): 51%; hemolysis at 60 min, 0.1 µM ([4]; exposure 60 min): 39%; hemolysis at 30 min, 0.5 µM ([4]; 0.5 μM, exposure 30 min): 83%; Emission max. ([2]; Chloroform): 801 nm
CN1/C(=C\C=C2/CCCC(/C=C/C3=[N+](C)c4ccc(I)cc4C3(C)C)=C2Cl)C(C)(C)c2cc(I)ccc21.[I-] [I-56] | 784 nm | 806 nm | 16% | – | – | –
CN(C)c1ccc(SC2=C(/C=C/C3=[N+](C)c4ccc(I)cc4C3(C)C)CCC/C2=C\C=C2/N(C)c3ccc(I)cc3C2(C)C)cc1.[I-] [I-61] | 792 nm | 812 nm | 14% | – | – | –
CC(C)(C)C1=CC(=C/C=C/C=C/C=C/C2=[N+](CCCS(=O)(=O)[O-])c3ccc(I)cc3C2(C)CCCCCC(=O)O)C=C(C(C)(C)C)O1 (centres unmarked) [I-68] | 794 nm | 826 nm | 6% | – | – | –
CN1\C(=C/C=C/C=C/C=C/C2=[N+](C)c3cc(I)cc(I)c3C2(C)C)C(C)(C)c2c(I)cc(I)cc21.[I-] [I-71, 2-[7-(4,6-diiodo-1,3,3-trimethyl-2,3-dihydro-1H-2-indolyliden)-1,3,5-heptatrienyl]-4,6-diiodo-1,3,3-trimethyl-3H-indolium iodide] | 745 nm | 773 nm | 46% | – | – | Singlet oxygen generation quantum yield ΦΔ [3]: 19%; Hemolysis (bovine erythrocytes; 5 μM): 2%; Hemolysis (bovine erythrocytes; 50 μM): 30%; hemolysis at 60 min, 0.1 µM ([4]; exposure 60 min): 21%; hemolysis at 30 min, 0.5 µM ([4]; 0.5 μM, exposure 30 min): 75%; QY (fluor) ([2]; methanol): 0.46
CN1\C(=C/C=C/C=C/C=C/C2=[N+](C)c3cc(I)cc(I)c3C2(C)CCCCCC(=O)O)C(C)(CCCCCC(=O)O)c2c(I)cc(I)cc21.[I-] (centres unmarked) [I-79, 3-(5-carboxypentyl)-2-7-[3-(5-carboxypentyl)-4,6-diiodo-1,3-dimethyl-2,3-dihydro-1H-2-indolyliden]-1,3,5-heptatrienyl-4,6-diiodo-1,3-dimethyl-3H-indolium iodide] | – | – | – | – | – | Absorption max. ([1]; Chloroform): 763 nm; Hemolysis (bovine erythrocytes; 50 μM): 4%; hemolysis at 60 min, 0.5 µM ([4]; 0.5 μM, exposure 60 min): 75%; hemolysis at 30 min, 1 µM ([4]; 1 μM, exposure 30 min): 80%
C[N+]1=C(C=CC=CC=CC=C2N(CCCCS(=O)(=O)[O-])c3ccc(S(=O)(=O)O)cc3C2(C)C)C(CCCCCC(=O)O)c2c(I)cc(I)cc21 (centres unmarked) [I-83, 4-(2-7-[3-(5-carboxypentyl)-4,6-diiodo-1-methyl-3H-2-indoliumyl]-2,4,6-heptatrienylidene-3,3-dimethyl-5-sulfo-2,3-dihydro-1H-1-indolyl)-1-butanesulfonate] | 750 nm | 779 nm | 43% | 748 nm | 776 nm | Absorption max. ([1]; Conjugates with IgG (antibody)): 755 nm; Emission max. ([2]; Conjugates with IgG (antibody)): 776 nm; Fluorescence quantum yield ([2]; Water): 22%
CC1(CCCCCC(=O)O)C(/C=C/C=C/C=C/C=C2\N(CCCCS(=O)(=O)O)c3ccc(S(=O)(=O)[O-])cc3C2(C)CCCCS(=O)(=O)O)=[N+](CCCS(=O)(=O)O)c2cc(I)c(I)c(I)c21 (centres unmarked) [I-84, 4-[2-7-[3-(5-carboxypentyl)-4,5,6-triiodo-3-methyl-1-(3-sulfopro-pyl)-2,3-dihydro-1H-2-indolyliden]-1,3,5-heptatrienyl-3-methyl-5-sulfo-3-(4-sulfobutyl)-3H-1-indoliumyl]-1-butanesulfonate] | – | – | – | 758 nm | 787 nm | Absorption max. ([1]; Conjugates with IgG (antibody)): 762 nm; Absorption max. ([1]; Phosphate buffer (pH 7.4)): 758 nm; Extinction coefficient ε at λmax (abs) ([1]; water): 270,000; Emission max. ([2]; Conjugates with IgG (antibody)): 787 nm; Emission max. ([2]; Phosphate buffer (pH 7.4)): 787 nm; Fluorescence quantum yield ([2]; Water (PB, pH 7.4)): 20%; QY (fluor) ([2]; water): 0.20
CN1\C(=C/C=C/C=C/C=C/C2=[N+](C)c3cc(Br)c(Br)c(Br)c3C2(C)C)C(C)(C)c2c1cc(Br)c(Br)c2Br.[I-] [I-88, 4,5,6-tribromo-1,3,3-trimethyl-2-[7-(4,5,6-tribromo-1,3,3-trimethyl-2,3-dihydro-1H-2-indolyliden)-1,3,5-heptatrienyl]-3H-indolium iodide] | 748 nm | 778 nm | 50% | – | – | Singlet oxygen generation quantum yield ΦΔ [3]: 11%; Extinction Coefficient ([1]; Methanol): 240,000 M^−1cm^−1; Extinction coefficient ε at λmax (abs) ([1]; methanol): 240,000; QY (fluor) ([2]; methanol): 0.50
C[N+]1=C(C=CC=CC=CC=C2N(CCCCCC(=O)NCCOCCOCCOCCC(=O)O)c3ccc(S(=O)(=O)[O-])cc3C2(C)CCCCS(=O)(=O)O)C(C)(C)c2c(I)cc(I)cc21 (centres unmarked) [I-89, 1-[5-(2-2-[2-(2-carboxyethoxy)ethoxy]ethoxyethylcarbamoyl)-pentyl]-2-[7-(4,6-diiodo-1,3,3-trimethyl-3H-2-indoliumyl)-2,4,6-heptatrienylidene]-3-methyl-3-(4-sulfobutyl)-5-indolinesulfonate] | – | – | – | 750 nm | 777 nm | Singlet oxygen generation quantum yield ΦΔ [3]: 13%; Extinction Coefficient ([1]; Water): 270,000 M^−1cm^−1; Fluorescence quantum yield ([2]; Water): 21.5%
CC1(CCCCCC(=O)N2CC[N+]3(CC2)CC[N+]2(CCNCC2)CC3)C(/C=C/C=C/C=C/C=C2\N(CCCS(=O)(=O)[O-])c3cc(I)c(I)c(I)c3C2(C)CCCCCC(=O)N2CC[N+]3(CC2)CC[N+]2(CCNCC2)CC3)=[N+](CCCS(=O)(=O)[O-])c2cc(I)c(I)c(I)c21.[Cl-].[Cl-].[Cl-] (centres unmarked) [I-91] | 766 nm | 795 nm | 26% | – | – | –
CC1(CCCCCC(=O)NCCS(=O)(=O)O)C(/C=C/C=C/C=C/C=C2\N(CCCS(=O)(=O)O)c3cc(I)c(I)c(I)c3C2(C)CCCCCC(=O)NCCS(=O)(=O)O)=[N+](CCCS(=O)(=O)[O-])c2cc(I)c(I)c(I)c21 (centres unmarked) [I-92] | 764 nm | 794 nm | 39% | – | – | –
CN1\C(=C/C=C/C=C/C=C/C2=[N+](C)c3cc(I)c(I)c(I)c3C2(C)CCCCCC(=O)O)C(C)(CCCCCC(=O)O)c2c1cc(I)c(I)c2I.[I-] (centres unmarked) [I-93] | 755 nm | 783 nm | 47% | 783 nm | n.f. | –
CN1\C(=C/C=C/C=C/C=C/C2=[N+](C)c3cc(I)c(I)c(I)c3C2(C)CCCCCC(=O)N2CC[N+]3(CC2)CC[N+]2(CCNCC2)CC3)C(C)(CCCCCC(=O)N2CC[N+]3(CC2)CC[N+]2(CCNCC2)CC3)c2c1cc(I)c(I)c2I.[Cl-].[Cl-].[Cl-].[Cl-].[Cl-] (centres unmarked) [I-94] | 759 nm | 788 nm | 38% | 695 nm and 756 nm | 782 nm | Fluorescence quantum yield ([2]; Water): 1.8%
CN1/C(=C\C=C2/CCCC(/C=C/C3=[N+](C)c4cc(I)c(I)c(I)c4C3(C)C)=C2Cl)C(C)(C)c2c1cc(I)c(I)c2I.[I-] [I-96] | 787 nm | 808 nm | 21% | – | – | –
